Data as given in US20130209543A1, “ENHANCED TREATMENT REGIMENS USING MTOR INHIBITORS” (Intellikine LLC, priority 2011, published 2013).

Key:
[1] = Phase I clinical trial: plasma pharmacokinetics; assay type: in vivo, human; conditions: for AUC / Cmax: oral
Description: (§1) Adult patients with histologically confirmed advanced solid tumors were enrolled in a 3+3 dose escalation Phase I study evaluating 3 intermittent schedules of administration for compound A: QW (once weekly), QD×3d QW (3 days on 4 days off), and QD×5d QW (5 days on 2 days off), in comparison with daily dosing (QD). Safety, maximum tolerated dose (MTD), pharmacokinetics (PK) and preliminary antitumor activity were evaluated.

[2] = Phase I clinical trial: grade 3 or greater treatment-emergent adverse events (Table 9); assay type: in vivo
Description: as §1
Pharmacodynamic (PD) endpoints were evaluated in surrogate (peripheral blood cells [PBCs], skin) and tumor tissues for the phosphorylation of TORC1-dependent markers (4EBP1/S6), and TORC2-dependent markers (AKT/PRAS40). 50 patients were treated in 3 intermittent dosing regimens; 21 in 6 cohorts ranging 7-40 mg QW, 20 in 5 cohorts ranging 6-20 mg QD×3d QW, and 9 in 3 cohorts ranging 7-13 mg QD×5d QW. […] The MTD for intermittent dosing was not reached. All adverse events (AEs) reported were reversible. The most common (≧20%, n=35) AEs considered possibly related to compound A reported in all 3 dosing regimens included nausea (51%), hyperglycemia (37%), mucosal inflammation (29%), rash (23%), asthenia (23%), vomiting (26%), and diarrhea (20%). The majority of AEs considered possibly related to compound A in any regimen were Grade 1 or 2. The only reported Grade≧3 AE (≧5%) possibly related to compound A in 3 regimens was lymphopenia (6%). Tables 4-9 show summaries of observed adverse events for various treatment regimens of the invention.

## CC(C)n1nc(-c2ccc3oc(N)nc3c2)c2c(N)ncnc21 [compound A]
[1]; human, plasma, 6 mg QD
  AUC: 8 µM·h
  Cmax: 150 nM
[1]; human, plasma, 10 mg Q5D
  AUC: 10 µM·h
  Cmax: 250 nM
[1]; human, plasma, 13 mg Q5D
  AUC: 13 µM·h
  Cmax: 300 nM
[1]; human, plasma, 16 mg Q3D
  AUC: 8 µM·h
  Cmax: 350 nM
[1]; human, plasma, 20 mg Q3D
  AUC: 10 µM·h
  Cmax: 400 nM
[1]; human, plasma, 30 mg QW
  AUC: 5 µM·h
  Cmax: 600 nM
[1]; human, plasma, 40 mg QW
  AUC: 6.5 µM·h
  Cmax: 700 nM
[1]; human, plasma, oral doses, patients
  Tmax: 0.5 to 4 h
[1]; human, plasma, oral doses, patients, read-out: mean elimination plasma t1/2 (converted)
  half-life: 8 h
[1]; oral doses
  Plasma exposures (Cmax and AUC0-24) versus dose: dose-linear plasma PK
[2]; 3 regimens
  Grade≧3 AE (≧5%) possibly related: lymphopenia: 6%
[2]; Total QD Dosing, N = 25
  Abdominal pain upper, Grade 3 or greater TEAE: 1 (4%)
  Anaemia, grade 3 or greater TEAE: 1 (4%)
  Aspartate aminotransferase increased, Grade 3 or greater TEAE: 0 (0%)
  Asthenia, grade 3 or greater TEAE: 0 (0%)
  Catheter related infection, Grade 3 or greater TEAE: 1 (4%)
  Cellulitis, Grade 3 or greater TEAE: 1 (4%)
  Diarrhoea, grade 3 or greater TEAE: 1 (4%)
  Disease progression, grade 3 or greater TEAE: 0 (0%)
  Enterocutaneous fistula, Grade 3 or greater TEAE: 1 (4%)
  Gamma-glutamyltransferase increased, Grade 3 or greater TEAE: 0 (0%)
  Gastroenteritis, Grade 3 or greater TEAE: 0 (0%)
  Hyperglycaemia, grade 3 or greater TEAE: 4 (16%)
  Hypokalaemia, grade 3 or greater TEAE: 2 (8%)
  Hyponatraemia, grade 3 or greater TEAE: 2 (8%)
  Lymphopenia, grade 3 or greater TEAE: 2 (8%)
  Pancreatitis acute, Grade 3 or greater TEAE: 1 (4%)
  Pleural effusion, Grade 3 or greater TEAE: 1 (4%)
  Pruritus, grade 3 or greater TEAE: 2 (8%)
  Rash macular, Grade 3 or greater TEAE: 0 (0%)
  Rash, grade 3 or greater TEAE: 7 (28%)
  Somnolence, Grade 3 or greater TEAE: 1 (4%)
  Thrombocytopenia, grade 3 or greater TEAE: 2 (8%)
  Urinary tract infection, Grade 3 or greater TEAE: 0 (0%)
[2]; Total QDx3d QW, N = 14
  Abdominal pain upper, Grade 3 or greater TEAE: 0 (0%)
  Anaemia, grade 3 or greater TEAE: 0 (0%)
  Aspartate aminotransferase increased, Grade 3 or greater TEAE: 0 (0%)
  Asthenia, grade 3 or greater TEAE: 1 (7%)
  Catheter related infection, Grade 3 or greater TEAE: 0 (0%)
  Cellulitis, Grade 3 or greater TEAE: 0 (0%)
  Diarrhoea, grade 3 or greater TEAE: 1 (7%)
  Disease progression, grade 3 or greater TEAE: 1 (7%)
  Enterocutaneous fistula, Grade 3 or greater TEAE: 0 (0%)
  Gamma-glutamyltransferase increased, Grade 3 or greater TEAE: 1 (7%)
  Gastroenteritis, Grade 3 or greater TEAE: 1 (7%)
  Hyperglycaemia, grade 3 or greater TEAE: 1 (7%)
  Hypokalaemia, grade 3 or greater TEAE: 0 (0%)
  Hyponatraemia, grade 3 or greater TEAE: 0 (0%)
  Lymphopenia, grade 3 or greater TEAE: 1 (7%)
  Pancreatitis acute, Grade 3 or greater TEAE: 0 (0%)
  Patients Reporting at Least One Grade 3 or Greater TEAE: 7 (50%)
  Pleural effusion, Grade 3 or greater TEAE: 0 (0%)
  Pruritus, grade 3 or greater TEAE: 0 (0%)
  Rash macular, Grade 3 or greater TEAE: 1 (7%)
  Rash, grade 3 or greater TEAE: 0 (0%)
  Somnolence, Grade 3 or greater TEAE: 0 (0%)
  Thrombocytopenia, grade 3 or greater TEAE: 0 (0%)
  Urinary tract infection, Grade 3 or greater TEAE: 1 (7%)
[2]; Total QDx5d QW, N = 6
  Abdominal pain upper, Grade 3 or greater TEAE: 0 (0%)
  Anaemia, grade 3 or greater TEAE: 0 (0%)
  Aspartate aminotransferase increased, Grade 3 or greater TEAE: 0 (0%)
  Asthenia, grade 3 or greater TEAE: 0 (0%)
  Catheter related infection, Grade 3 or greater TEAE: 0 (0%)
  Cellulitis, Grade 3 or greater TEAE: 0 (0%)
  Diarrhoea, grade 3 or greater TEAE: 0 (0%)
  Disease progression, grade 3 or greater TEAE: 0 (0%)
  Enterocutaneous fistula, Grade 3 or greater TEAE: 0 (0%)
  Gamma-glutamyltransferase increased, Grade 3 or greater TEAE: 0 (0%)
  Gastroenteritis, Grade 3 or greater TEAE: 0 (0%)
  Hyperglycaemia, grade 3 or greater TEAE: 0 (0%)
  Hypokalaemia, grade 3 or greater TEAE: 0 (0%)
  Hyponatraemia, grade 3 or greater TEAE: 0 (0%)
  Lymphopenia, grade 3 or greater TEAE: 0 (0%)
  Pancreatitis acute, Grade 3 or greater TEAE: 0 (0%)
  Patients Reporting at Least One Grade 3 or Greater TEAE: 0 (0%)
  Pleural effusion, Grade 3 or greater TEAE: 0 (0%)
  Pruritus, grade 3 or greater TEAE: 0 (0%)
  Rash macular, Grade 3 or greater TEAE: 0 (0%)
  Rash, grade 3 or greater TEAE: 0 (0%)
  Somnolence, Grade 3 or greater TEAE: 0 (0%)
  Thrombocytopenia, grade 3 or greater TEAE: 0 (0%)
  Urinary tract infection, Grade 3 or greater TEAE: 0 (0%)
[2]; Total QW Dosing, N = 15
  Abdominal pain upper, Grade 3 or greater TEAE: 0 (0%)
  Anaemia, grade 3 or greater TEAE: 0 (0%)
  Aspartate aminotransferase increased, Grade 3 or greater TEAE: 1 (7%)
  Asthenia, grade 3 or greater TEAE: 0 (0%)
  Catheter related infection, Grade 3 or greater TEAE: 0 (0%)
  Cellulitis, Grade 3 or greater TEAE: 0 (0%)
  Diarrhoea, grade 3 or greater TEAE: 1 (7%)
  Disease progression, grade 3 or greater TEAE: 0 (0%)
  Enterocutaneous fistula, Grade 3 or greater TEAE: 0 (0%)
  Gamma-glutamyltransferase increased, Grade 3 or greater TEAE: 1 (7%)
  Gastroenteritis, Grade 3 or greater TEAE: 0 (0%)
  Hyperglycaemia, grade 3 or greater TEAE: 0 (0%)
  Hypokalaemia, grade 3 or greater TEAE: 0 (0%)
  Hyponatraemia, grade 3 or greater TEAE: 0 (0%)
  Lymphopenia, grade 3 or greater TEAE: 1 (7%)
  Pancreatitis acute, Grade 3 or greater TEAE: 0 (0%)
  Patients Reporting at Least One Grade 3 or Greater TEAE: 3 (20%)
  Pleural effusion, Grade 3 or greater TEAE: 0 (0%)
  Pruritus, grade 3 or greater TEAE: 0 (0%)
  Rash macular, Grade 3 or greater TEAE: 0 (0%)
  Rash, grade 3 or greater TEAE: 0 (0%)
  Somnolence, Grade 3 or greater TEAE: 0 (0%)
  Thrombocytopenia, grade 3 or greater TEAE: 0 (0%)
  Urinary tract infection, Grade 3 or greater TEAE: 0 (0%)
[2]; Total, N = 60
  Abdominal pain upper, Grade 3 or greater TEAE: 1 (2%)
  Anaemia, grade 3 or greater TEAE: 1 (2%)
  Aspartate aminotransferase increased, Grade 3 or greater TEAE: 1 (2%)
  Asthenia, grade 3 or greater TEAE: 1 (2%)
  Catheter related infection, Grade 3 or greater TEAE: 1 (2%)
  Cellulitis, Grade 3 or greater TEAE: 1 (2%)
  Diarrhoea, grade 3 or greater TEAE: 3 (5%)
  Disease progression, grade 3 or greater TEAE: 1 (2%)
  Enterocutaneous fistula, Grade 3 or greater TEAE: 1 (2%)
  Gamma-glutamyltransferase increased, Grade 3 or greater TEAE: 2 (3%)
  Gastroenteritis, Grade 3 or greater TEAE: 1 (2%)
  Hyperglycaemia, grade 3 or greater TEAE: 5 (8%)
  Hypokalaemia, grade 3 or greater TEAE: 2 (3%)
  Hyponatraemia, grade 3 or greater TEAE: 2 (3%)
  Lymphopenia, grade 3 or greater TEAE: 4 (7%)
  Pancreatitis acute, Grade 3 or greater TEAE: 1 (2%)
  Pleural effusion, Grade 3 or greater TEAE: 1 (2%)
  Pruritus, grade 3 or greater TEAE: 2 (3%)
  Rash macular, Grade 3 or greater TEAE: 1 (2%)
  Rash, grade 3 or greater TEAE: 7 (12%)
  Somnolence, Grade 3 or greater TEAE: 1 (2%)
  Thrombocytopenia, grade 3 or greater TEAE: 2 (3%)
  Urinary tract infection, Grade 3 or greater TEAE: 1 (2%)
